Experimental data: US11365227B2, “Peptide and pharmaceutical compositions of same for use as an antimicrobial and in cancer treatment” (UNIVERSITAT DE VALÈNCIA, priority 2017, dated 2022)
Where a SMILES comes first, the peptide text is derived from it.

Assays:
[1] = Cell viability MTS assay, cytotoxic effect; type: cell-based; conditions: mouse, HC-11 normal mammary epithelial cells, approximately 200 μM (700 μg/mL), 0.5% bovine foetal serum
Protocol: Cell viability was determined by the MTS method. The MDA-MB-231 cells cultured in plates with 96 wells at 37° C. in an atmosphere humidified with 10% CO2 to a density of 5×10^3 cells/well were incubated with different concentrations of the peptide PaSK for 24 h. Then 20 μL were added of the solution MTS/PMS (3-(4,5-dimethylthiazol-2-yl)-5-(3-carboxymethoxyfenyl)-2-(4-sulphophenyl)-2H-tetrazole/phenazine methosulphate) to each well and after incubating for 2 h in the dark the absorbance at 490 nm was read in a plate reader. The percentage reduction in number of cells was calculated according to the formula (1−E/C)×100, where E is the absorbance of the cells treated with the peptide and C is the absorbance of the samples of the control cells.
The cytotoxic effect of the peptide PaSK has been studied in two cell lines of triple-negative breast cancer cells, one human (MDA-MB-231) and one mouse (4T1), and a line of normal mouse mammary epithelial cells (HC-11). To this end, a cell viability MTS assay was performed, based on the use of a compound derived from tetrazolium that is reduced in live cells to form a soluble coloured product. […]

S. aureus = assay: Scanning electron microscopy of S. aureus cells treated with peptides; type: cell-based, Staphylococcus aureus subsp. aureus CECT 4013; conditions: 25 μg/mL, 1 h
Protocol: The cells were prepared in the same way as for the flow cytometry technique and the same aliquots and treatments were performed. The samples were incubated at 37° C. for 1 h. The bacteria were fixed with Karnosky (2.5% paraformaldehyde and 0.5 glutaraldehyde) for 2 h at 4° C. After washing (centrifuging and eliminating the supernatant) they were fixed with 2% osmium tetraoxide for another 2 h, washed again and filtered with a 0.2 μm filter. The cells were then dehydrated in graded ethanol series (30°, 50°, 70°, 90°, 100°) for 10 min in each gradation. To carry out the critical point drying, the ethanol was replaced with liquid CO2, the temperature was increased to accelerate evaporation and the pressure was lowered slowly to conserve the exact shape of the bacteria. Finally, shading with gold palladium was performed for 2 min observing the results in the equipment FEG-SEM HITACHI S4800 at 10 Kv.
Scanning electron microscopy provides high-resolution images used to view the damage caused by the peptides to the bacterial membrane. The cells of S. aureus CECT 4013 were treated with the peptides hBD-3, TcDef3-pep and PaSK at a concentration of 25 μg/mL, for 1 h, and analysed using scanning electron microscopy (FIG. 4). In cells without treatment the circular and uniform form typical of S. aureus was observed, with the intact membrane, while in treated cells various types of morphological alterations can be seen. […] With this treatment small circular structures are observed, smaller than the cells of S. aureus.

## CC[C@H](C)[C@H](NC(=O)[C@H](CCCNC(=N)N)NC(=O)[C@H](CCCNC(=N)N)NC(=O)[C@H](CCCCN)NC(=O)[C@H](CC(N)=O)NC(=O)[C@H](CS)NC(=O)[C@H](Cc1ccc(O)cc1)NC(=O)CNC(=O)CNC(=O)[C@H](CCCNC(=N)N)NC(=O)[C@H](CCCCN)NC(=O)[C@H](CCCNC(=N)N)NC(=O)[C@H](CCCCN)NC(=O)[C@H](CC(C)C)NC(=O)[C@H](CC(C)C)NC(=O)[C@H](CS)NC(=O)[C@H](Cc1c[nH]cn1)NC(=O)[C@H](C)NC(=O)[C@H](C)NC(=O)[C@H](CS)NC(=O)[C@H](C)NC(=O)[C@H](C)NC(=O)[C@H](Cc1c[nH]cn1)NC(=O)[C@H](CC(N)=O)NC(=O)[C@@H](NC(=O)[C@@H](N)CCCCN)C(C)C)C(=O)N[C@@H](CS)C(=O)N[C@H](C(=O)N[C@@H](CS)C(=O)N[C@@H](CCCNC(=N)N)C(=O)N[C@@H](CC(N)=O)C(=O)O)C(C)C [PaSK] (H-KVNHAACAAHCLLKRKRGGYCNKRRICVCRN-OH; N-terminus and C-terminus assumed)
[1]
  mortality at 24 h, 200 μM: ~50%
S. aureus
  biofilm formation, scanning electron microscopy: biofilm produced
  morphological alterations, scanning electron microscopy: complete cell disintegration
